Laboratory results from patent publication US20090274739A1, “METHODS AND COMPOSITIONS FOR TREATING NEOINTIMAL HYPERPLASIA” (THE TRUSTEES OF COLUMBIA UNIVERSITY IN THE CITY OF NEW YORK, priority 2006, published 2009).
Where “and” joins values, the source holds several entries; their conditions need not be identical. Identical values can stand only once. Entries after “also recorded” stand apart in the source; their conditions may differ.

Experiments:
[1] = system: primary murine aortic vascular smooth muscle cells (VSMC); test: VSMC proliferation assay (Coulter counter / MTS-based); format: cell-based, mouse
Experimental: The methods used in the above experiments were as follows: Cell Culture and VSMC Proliferation Assays. Primary VSMC were isolated from aortic explants of wildtype, ob/ob, or db/db mice in the method of Roque et al. 30. VSMC were routinely cultured in Dulbecco's Modified Eagle's Medium (DMEM) containing either 4500 or 1250 mg/L glucose supplemented with 20% FBS at 37° C. in a 5% CO2 incubator. […] Cells were plated at 200,000 cells/ well of a 6 well dish and subsequently serum starved for 72 hr in DMEM media supplemented with 0.1 % FBS. Leptin dissolved in PBS was added directly to serum-free media at concentrations of 1, 10, or 100 ng/ml with […] LY294002 or U0126, and cells were grown for another 72 hr before harvesting. VSMC proliferation was measured by counting samples using a Coulter counter or using the Cell Titre 96 Aqueous One Solution Cell Proliferation Assay kit (Promega). Cell viability was assessed by Trypan Blue staining.
Proliferation of VSMCs: VSMC proliferation was measured by counting triplicate samples using a Coulter counter or using the CellTitier 96 Aqueous One Solution Cell Proliferation Assay (Promega, Madison, Wis.) kit per manufacturer's instructions. Cell viability was assessed via staining with Trypan Blue.
Murine VSMCs (2×10^4 cells/well) were incubated in a 6-well tissue culture plate for 72 hours in DMEM containing 0.1% FBS with or without insulin (10 or 100 nmol/L) and with 0, 1, 10, or 100 nmol/L rapamycin. Triplicate samples were counted using a Coulter counter and were normalized as percentage of the control group. Cell viability was checked via Trypan blue staining.
Murine VSMCs, seeded 2×10^4 cells/well in a 6-well plate, were starved for 72 hrs in DMEM with 0.1% FBS. Rapamycin, leptin, or insulin in different concentrations indicated in the figure were incubated with VSMCs in DMEM with 0.1% of FBS for 72 hrs. Triplicate samples were counted via a Coulter counter. Cell viability was checked via Trypan blue staining. […] In panel C, VSMCs were exposed to U0126, a specific MEK1/2 inhibitor, or LY294002, a specific PI3K inhibitor.
Primary VSMC were isolated from aortic explants of WT, ob/ob, or db/db mice (46). VSMC proliferation was determined using the Cell Titre Aqueous One Solution Proliferation Assay (Promega, Madison, Wis.). Migration to PDGF-BB was assessed in a modified Boyden chamber assay (47).

[2] = system: MAPK (p44/p42, ERK1/2) phosphorylation; test: Immunoblot of MAPK (ERK1/2, p44/p42) phosphorylation in VSMC; format: cell-based, mouse
Experimental: (§1) Western blot analysis: The cells were plated in a 100-mm culture dish in DMEM supplemented with 20% FBS for 24 h at 37° C., followed by serum starvation for 48 h. Cells were then treated with different reagents for 30 min. Cells were subsequently lysed on ice for 30 min in RIPA buffer [150 mM NaCl, 100 mM Tris (pH 8.0), 1% Triton X-100, 1% deoxycholic acid, 0.1% SDS, 5 mM EDTA, and 10 mM NaF] supplemented with 1 mM sodium vanadate, 2 mM leupeptin, 2 mM aprotinin, 1 mM phenylmethylsulfonyl fluoride (PMSF), 1 mM DTT, and 2 mM pepstatin A. After centrifugation at 14,000 rpm for 30 min, the supernatant was harvested as the total cellular protein extract, and stored at −70° C. The protein concentration was determined using Bio-Rad protein assay reagent (Richmond, Calif.). The total cellular protein extracts were separated by SDS-polyacrylamide gel electrophoresis (SDS-PAGE) and transferred to nitrocellulose membrane in 20 mM Tris-HCl (pH 8.0) containing 150 mM glycine and 20% (v/v) methanol.
(§2) Membranes were blocked with 5% nonfat dried milk in PBS containing 0.05% Tween 20 and incubated with antibodies against phospho-(Thr^202/Tyr^204) p42/p44^MAPK and p42/p44^MAPK, phospho-Akt([…]) and anti-Akt, p70^S6K, 4EBP-1. Blots were washed three times in PBS buffer, followed by incubation with the appropriate HRP-linked IgG. The specific proteins in the blots were visualized using an enhanced chemiluminescence reagent (NEN, Boston, Mass.).
(§3) VSMC were plated on 100-mm dishes, serum starved for 72 h in DMEM containing 0.1% FBS, and stimulated with 0.6 or 6 nM (10 or 100 ng/ml) leptin. Extracts were prepared by brief sonication in HKM buffer [40 mM HEPES-KOH (pH 7.6), 7.5 mM MgCl2, 0.5 mM DTT] or, in the case of Akt phosphorylation studies, by lysing cells on ice for 30 min in RIPA buffer. 70 μg of protein per sample were subjected to immunoblotting by standards protocols. Imaging and densitometry were performed on an Odyssey infrared system (Li-Cor, Lincoln, Neb.).

[3] = system: Akt phosphorylation; test: Immunoblot of Akt phosphorylation in VSMC; format: cell-based, mouse; conditions: Example 2; rapamycin; leptin 100 ng/ml
Experimental: as §1, §2, §3

[4] = system: murine femoral artery wire injury model (neointimal hyperplasia); test: Femoral artery wire injury model, morphometry of neointimal formation; format: in vivo, mouse; set-up: Lumen / Media / Intima / TVA (total vessel area): unit not given here; conditions: for decrease of neointimal formation compared to vehicle: absence of leptin; for I/M (intima:media ratio) / Intima / Lumen / Media / TVA (total vessel area): mean ± SD
Description: Animal Models and Drug Treatments. Wild type C57BL/6J background mice and mice deficient for leptin (C57BL/6J-Lepob; ob/ob) or the leptin receptor (C57BL/6J-m+/+Lepdb; db/db) were purchased from Charles Jackson Laboratories, Maine. Mice were obtained at ages 6-8 weeks old and average weight 15 g. Animals were fed standard rodent chow and tap water ad libitum. Procedures and animal care were approved by the Institutional Animal Care and Use Committee. Mice were subjected to femoral artery wire injury or sham injury described below 24 hr prior to starting pharmacological treatments. Sirolimus was administered by intraperitoneal injection once per day for 14 days as a suspension in 0.2% sodium carboxymethyl cellulose and 0.25% polysorbate-80; duplicate experiments were accomplished with 0.5% DMSO. Leptin or LY294002 was administered by intraperitoneal injection once per day for 14 days as a suspension in PBS. Plasma leptin levels were measured at baseline, 3, 6, and 10 hr after leptin injection using an ELISA assay (R&D). Leptin plus the vehicle used for both sirolimus and LY294002 was used as the control group for the treatment groups with sirolimus and LY294002. After the 2-week treatment, animals were processed for femoral artery morphometry.
Femoral Artery Injury Model. Endoluminal injury of bilateral femoral arteries was performed according to the method of Roque et al. with minor modification 27. […] Briefly, to denude and dilate femoral arteries, a 0.014″ angioplasty guidewire (Guidant) was passed endoluminally 3 times to the level of the aortic bifurcation. A sham protocol was performed where the arteries underwent dissection, clamping, and ligature without passage of the guidewire.
Computer-aided quantitative morphometry to measure luminal, medial, intimal, and vessel areas were performed as previously described 27 with minor modification. Mice were euthanized via CO2 asphyxiation prior to en bloc excision of hind limbs. Briefly, multiple segments of the common femoral artery at the level of injury were fixed in 10% Zinc Formalin, embedded in paraffin, sectioned at […] thickness, and subjected to Elastic-Van Gieson staining at a Columbia University Core Histology facility. In many cases, arteries underwent immunohistochemical staining for smooth muscle a-actin to highlight the media and neointima. Photomicrographs were captured on Adobe Photoshop 7.0 and transferred to Scion Image software for quantitative analysis. Specimens were analyzed by two independent operators blinded to the treatment groups. Microsoft Excel software was used to calculate the RNI values from I/M ratios in the absence and presence of pharmacological inhibitors, as detailed in the text.
Surgical Procedures: The mouse femoral artery wire injury model of was used with minor modifications (Roque M, et al., Arterioscler Thromb Vasc Biol, 2000, 20(2):335-42). Briefly, forty-two male mice were studied. Endoluminal injury to the common femoral artery was produced by either 3 passages of a 0.014″ diameter angioplasty guidewire (Guidant, Santa Clara, Calif.). […] While being viewed under a surgical microscope, a groin incision was made and the femoral artery was isolated and temporarily clamped distal to the inguinal ligament. An arteriotomy was performed and the guidewire was passed 3 times to the level of the aortic bifurcation. The artery was then ligated proximal to the arteriotomy. A sham protocol was carried out on the contralateral side where the arteries underwent dissection, temporary clamping, and ligature, without passage of the wire. The formation of the neointima was confirmed in this model as being comprised mainly of VSMCs through immunohistochemical staining of representative sections for α-smooth muscle actin via a commercial kit (Sigma).
For all treatment protocols, rapamycin was administered by intraperitoneal injection once per day, for 14 days, as a suspension in 0.2% sodium carboxymethyl cellulose and 0.25% polysorbate-80. […]

[5] = system: wire-injured femoral artery of hyperglycemic (STZ) mice; test: Femoral artery wire injury in streptozotocin-induced hyperglycemic mice; format: in vivo, mouse
Experimental: For the studies carried out in hyperglycemic mice, animals received an intraperitoneal injection of 60 mg/kg/d for 5 days of streptozotocin (STZ) in 0.05 mol/L citrate buffer. Surgery was performed 3 days following the final injection. Blood glucose levels were measured prior to injury (representing baseline levels), at time of injury, at euthanasia, and as needed during insulin administration with the OneTouch SureStep® Blood glucose monitoring system (Lifescan, Inc., Milipitas, Calif.). Only animals with blood glucose concentrations >300 mg/dL were included in this study.
Insulin (12-26 U/kg) was administered via an intraperitoneal route twice per day, for 14 days, according to blood glucose measurements.
Morphometry: Mice were euthanized via CO2 asphyxiation and were perfused with 10% Zinc Formalin through the left ventricle at physiological pressure (100 mm Hg). Tissues were excised and fixed overnight in 10% Zinc Formalin, embedded in paraffin, and sectioned at 5 μm thickness. Multiple level sections were cut at 100 pm intervals. For morphometry, tissues were stained with elastic van Gieson stain. Using computer aided morphometry (Scion Image), luminal, medial, intimal, and vessel area, and the lengths of the internal and external elastic laminae were measured as previously described (Roque M, et al., Arterioscler Thromb Vasc Biol, 2000, 20(2):335-42) in a blinded manner. […]

[6] = wire injury + leptin 0.4 mg/kg, SRL 1 mg/kg/d i.p. 14 days
[7] = wire injury + leptin 0.4 mg/kg, SRL 4 mg/kg/d i.p. 14 days
[8] = wire injury + leptin 0.4 mg/kg, SRL 9 mg/kg/d i.p. 14 days
[9] = wire injury, SRL 1 mg/kg/d i.p. 14 days, no leptin
[10] = wire injury, SRL 4 mg/kg/d i.p. 14 days, no leptin
[11] = wire injury, SRL 9 mg/kg/d i.p. 14 days, no leptin

Q: With `N#CC(=C(/N)Sc1ccccc1N)/C(C#N)=C(\N)Sc1ccccc1N` [U0126] as the compound, how does the “VSMC proliferation induced by leptin and insulin” value [1] read?
A: weak inhibition; also recorded: not inhibited

Q: What about the “effect on leptin-induced VSMC proliferation” value [1] of the same compound?
A: did not significantly alter

Q: And the “effect on leptin-induced proliferation of murine VSMC” value [1]?
A: did not significantly alter

Q: What about the “leptin-stimulated phosphorylation of MAPK” value ([2]; Example 1, data not shown) of the same compound?
A: prevented

Q: What about the “leptin-stimulated phosphorylation of MAPK” value ([2]; Example 5, U0126 10 μM) of the same compound?
A: prevented

Q: What does the source list for `CO[C@H]1C[C@@H]2CC[C@@H](C)[C@@](O)(O2)C(=O)C(=O)N2CCCC[C@H]2C(=O)O[C@H]([C@H](C)C[C@@H]2CC[C@@H](O)[C@H](OC)C2)CC(=O)[C@H](C)/C=C(\C)[C@@H](O)[C@@H](OC)C(=O)[C@H](C)C[C@H](C)/C=C/C=C/C=C/1C` [sirolimus, rapamycin]?
A: inhibition of leptin-stimulated phosphorylation of ERK1/2 ([2]; Example 2, rapamycin, leptin 100 ng/ml): did not inhibit; inhibition of leptin-stimulated phosphorylation of Akt [3]: did not inhibit; decrease of neointimal formation compared to vehicle ([4]; sirolimus 1 mg/kg/d): ~2 fold; relative neointimal inhibition (RNI) ([4]; sirolimus 1 mg/kg/d, in the presence of leptin 0.4 mg/kg): 0.35; relative neointimal inhibition (RNI) ([4]; sirolimus 1 mg/kg/d, without leptin, RNI 1 = total inhibition): 0.51; decrease of neointimal formation compared to vehicle ([4]; sirolimus 4 mg/kg/d): ~5 fold; relative neointimal inhibition (RNI) ([4]; sirolimus 4 mg/kg/d, in the presence of leptin 0.4 mg/kg): 0.67; relative neointimal inhibition (RNI) ([4]; sirolimus 4 mg/kg/d, without leptin): 0.81; decrease of neointimal formation compared to vehicle ([4]; sirolimus 9 mg/kg/d): ~5 fold and ~6 fold; relative neointimal inhibition (RNI) ([4]; sirolimus 9 mg/kg/d, in the presence of leptin 0.4 mg/kg): 0.97; relative neointimal inhibition (RNI) ([4]; sirolimus 9 mg/kg/d, without leptin): 0.85; I/M (intima:media ratio) [4, 6]: 1.269 ± 0.254; Intima [4, 6]: 0.024 ± 0.005; Lumen [4, 6]: 0.010 ± 0.002; Media [4, 6]: 0.019 ± 0.001; TVA (total vessel area) [4, 6]: 0.056 ± 0.007; I/M (intima:media ratio) [4, 7]: 0.654 ± 0.172; Intima [4, 7]: 0.009 ± 0.001; Lumen [4, 7]: 0.012 ± 0.004; Media [4, 7]: 0.015 ± 0.002; TVA (total vessel area) [4, 7]: 0.035 ± 0.006; I/M (intima:media ratio) [4, 8]: 0.061 ± 0.015; Intima [4, 8]: 0.001 ± 0.000; Lumen [4, 8]: 0.014 ± 0.002; Media [4, 8]: 0.017 ± 0.003; TVA (total vessel area) [4, 8]: 0.031 ± 0.004; I/M (intima:media ratio) [4, 9]: 0.334 ± 0.043; Intima [4, 9]: 0.005 ± 0.001; Lumen [4, 9]: 0.012 ± .003; Media [4, 9]: 0.014 ± 0.001; TVA (total vessel area) [4, 9]: 0.029 ± 0.003; I/M (intima:media ratio) [4, 10]: 0.121 ± 0.027; Intima [4, 10]: 0.001 ± 0.000; Lumen [4, 10]: 0.012 ± 0.005; Media [4, 10]: 0.015 ± 0.003; TVA (total vessel area) [4, 10]: 0.028 ± 0.006; I/M (intima:media ratio) [4, 11]: 0.094 ± 0.037; Intima [4, 11]: 0.001 ± 0.000; Lumen [4, 11]: 0.015 ± 0.002; Media [4, 11]: 0.015 ± 0.002; TVA (total vessel area) [4, 11]: 0.030 ± 0.004

Q: For “Insulin: insulin purchased from Calbiochem”, which VSMC proliferation ([1]; insulin 10 or 100 nmol/L, 72 hours) is on record?
A: induced a dose dependent increase in cell proliferation

Q: And the blood glucose levels ([5]; STZ mice, insulin 12-26 U/kg twice per day)?
A: reduce blood glucose levels to normal levels

Q: What about the “intima:media ratio” value ([5]; STZ+INS, insulin 12-26 U/kg i.p. twice per day 14 days, p<0.01) of the same compound?
A: significant increase
